Reference: US9974766B2, “Prenylated isoflavones for treatment of subjects with multidrug-resistant cancer” (Macau University of Science and Technology, priority 2015, dated 2018)
“Also recorded” adds a separate entry of the source.

Columns and labels:
[1] = test system: MCF-7 (Breast) (Taxol sensitive); experiment: MTT cytotoxicity assay, MCF-7 Taxol sensitive; format: cell-based; conditions: Homo sapiens, MCF7, 72 h, 3 days
Description: (§1) Cell cultures and cytotoxicity assays have been carried out. […] Subsequently, 10 μL of MTT reagents is added to each well and incubated at 37° C. for 4 hours followed by the addition of 100 μL solubilization buffer (10% SDS in 0.01 mol/L HCl) and overnight incubation. Absorbance at 585 nm is determined from each well the next day. The percentage of cell viability is calculated using the following formula: Cell viability (%)=Cells number treated/Cells number DMSO control×100. Data are obtained from three independent experiments. The resistant factor is calculated by dividing the IC50 in resistant cells by its IC50 against drug-sensitive cells.

[2] = test system: MCF-7 (Breast) (Taxol resistant); experiment: MTT cytotoxicity assay, MCF-7 Taxol resistant; format: cell-based, human; conditions: for IC50: Homo sapiens, MCF7, 72 h, MTT, 3 days; for Resistant Factor: IC50 in Taxol resistant MCF-7 divided by IC50 in Taxol sensitive MCF-7
Description: as §1

[3] = test system: A549 (Lung) (Taxol sensitive); experiment: MTT cytotoxicity assay, A549 Taxol sensitive; format: cell-based; conditions: Homo sapiens, A549, 72 h, 3 days
Description: as §1

[4] = test system: A549 (Lung) (Taxol resistant); experiment: MTT cytotoxicity assay, A549 Taxol resistant; format: cell-based, human; conditions: for IC50: Homo sapiens, A549, 72 h, MTT, 3 days; for Resistant Factor: IC50 in Taxol resistant A549 divided by IC50 in Taxol sensitive A549
Description: as §1

[5] = test system: HCT-8 (Colon) (Taxol sensitive); experiment: MTT cytotoxicity assay, HCT-8 Taxol sensitive; format: cell-based; conditions: Homo sapiens, HCT-8, 72 h, 3 days
Description: as §1

[6] = test system: HCT-8 (Colon) (Taxol resistant); experiment: MTT cytotoxicity assay, HCT-8 Taxol resistant; format: cell-based, human; conditions: for IC50: Homo sapiens, HCT-8, 72 h, MTT, 3 days; for Resistant Factor: IC50 in Taxol resistant HCT-8 divided by IC50 in Taxol sensitive HCT-8
Description: as §1

[7] = test system: MCF-7 (Breast) (Dox sensitive); experiment: MTT cytotoxicity assay, MCF-7 Dox sensitive; format: cell-based; conditions: Homo sapiens, MCF7, 72 h, 3 days
Description: as §1

[8] = test system: MCF-7 (Breast) (Dox resistant); experiment: MTT cytotoxicity assay, MCF-7 Dox resistant; format: cell-based, human; conditions: for IC50: Homo sapiens, MCF7, 72 h, MTT, 3 days; for Resistant Factor: IC50 in Dox resistant MCF-7 divided by IC50 in Dox sensitive MCF-7
Description: as §1

P-glycoprotein [9] = target: P-glycoprotein (Homo sapiens, UniProt P08183); experiment: Rho123 efflux assay in A549 taxol-resistant lung cancer cells; conditions: Example 8, 10 μM of each compound, 24 h, then Rho123 1 h
Chain of P-glycoprotein (Homo sapiens, UniProt P08183) (P08183 whole entry): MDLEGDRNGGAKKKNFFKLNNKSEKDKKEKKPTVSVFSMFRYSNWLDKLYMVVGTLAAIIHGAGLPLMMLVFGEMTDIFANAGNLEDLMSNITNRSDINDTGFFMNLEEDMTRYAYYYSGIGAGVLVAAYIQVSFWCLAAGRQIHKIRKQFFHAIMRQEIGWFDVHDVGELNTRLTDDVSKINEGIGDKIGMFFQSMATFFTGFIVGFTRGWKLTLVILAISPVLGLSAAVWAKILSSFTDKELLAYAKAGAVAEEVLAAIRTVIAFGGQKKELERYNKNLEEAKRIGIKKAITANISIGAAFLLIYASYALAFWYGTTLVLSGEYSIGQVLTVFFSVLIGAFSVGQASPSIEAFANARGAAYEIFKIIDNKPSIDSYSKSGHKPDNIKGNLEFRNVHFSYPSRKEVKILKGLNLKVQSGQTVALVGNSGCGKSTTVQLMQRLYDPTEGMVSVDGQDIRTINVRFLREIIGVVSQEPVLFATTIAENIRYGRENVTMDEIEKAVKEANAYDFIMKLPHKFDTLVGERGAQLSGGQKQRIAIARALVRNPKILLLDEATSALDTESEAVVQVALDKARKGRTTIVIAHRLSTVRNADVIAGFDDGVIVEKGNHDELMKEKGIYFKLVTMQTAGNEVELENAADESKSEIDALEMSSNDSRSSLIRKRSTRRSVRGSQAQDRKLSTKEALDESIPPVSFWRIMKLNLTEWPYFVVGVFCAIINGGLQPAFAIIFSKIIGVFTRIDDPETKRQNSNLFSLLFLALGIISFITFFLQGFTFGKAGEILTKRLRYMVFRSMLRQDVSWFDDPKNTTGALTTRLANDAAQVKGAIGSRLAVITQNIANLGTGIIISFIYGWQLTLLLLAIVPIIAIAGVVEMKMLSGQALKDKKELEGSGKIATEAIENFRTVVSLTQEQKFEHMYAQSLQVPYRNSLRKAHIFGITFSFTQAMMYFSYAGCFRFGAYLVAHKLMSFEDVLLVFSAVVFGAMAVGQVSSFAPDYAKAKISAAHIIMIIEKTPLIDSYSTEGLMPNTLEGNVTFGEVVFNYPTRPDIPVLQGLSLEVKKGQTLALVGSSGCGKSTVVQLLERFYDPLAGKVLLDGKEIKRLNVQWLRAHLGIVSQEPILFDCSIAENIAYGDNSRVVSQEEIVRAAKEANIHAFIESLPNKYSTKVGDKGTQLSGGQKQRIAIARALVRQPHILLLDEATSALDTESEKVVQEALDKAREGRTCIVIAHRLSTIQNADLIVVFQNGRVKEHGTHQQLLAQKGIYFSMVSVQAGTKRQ

[10] = test system: A549 taxol-resistant lung cancer cells; experiment: Annexin V/propidium iodide flow cytometry of cell death, A549 taxol-resistant; format: cell-based, human; conditions: 1-10 μM pomiferin with 40 μM taxol, 24 h
Description: (§2) Cell death and viability are measured using an Annexin V staining kit (BD Biosciences, San Jose, Calif., USA). […] Cells were then harvested and analysed by multiparametric flow cytometry using FITC-Annexin V and propidium iodide staining (BD Biosciences, San Jose, Calif., USA) according to the manufacturer's instructions. Flow cytometry has been then carried out using a FACSCalibur flow cytometer (BD Biosciences, San Jose, Calif., USA). […] Data were obtained from three independent experiments.

[11] = test system: HCT-8 taxol-resistant colon cancer cells; experiment: Annexin V/propidium iodide flow cytometry of cell death, HCT-8 taxol-resistant; format: cell-based, human; conditions: 1-10 μM pomiferin with 40 μM taxol, 24 h
Description: as §2

P-glycoprotein [12] = experiment: Rho123 efflux assay in MCF-7 taxol/doxorubicin-sensitive breast cancer cells; conditions: MCF-7 drug-sensitive cells without P-glycoprotein expression; pomiferin 5-20 μM or verapamil 10 μM, 24 h, then Rho123 1 h

CC(=O)O[C@H]1C(=O)[C@@]2(C)[C@H]([C@H](OC(=O)c3ccccc3)[C@]3(O)C[C@H](OC(=O)[C@H](O)[C@@H](NC(=O)c4ccccc4)c4ccccc4)C(C)=C1C3(C)C)[C@]1(OC(C)=O)CO[C@@H]1C[C@@H]2O [Taxol, paclitaxel, reference compound]
IC50 [1]: < 0.001 µM | IC50 [2]: 5 µM | Resistant Factor [2]: 5000× | Resistant Factor ([2]; listed as taxol): over 5000 × | IC50 [3]: 0.0309 µM | IC50 [4]: 31.3 µM | Resistant Factor [4]: 1012.945× | Resistant Factor ([4]; listed as taxol): 1000 × | IC50 [5]: < 0.001 µM | IC50 [6]: 35.3 µM | Resistant Factor [6]: >35300× | Resistant Factor ([6]; listed as taxol): 35300 ×

COc1cccc2c1C(=O)c1c(O)c3c(c(O)c1C2=O)C[C@@](O)(C(=O)CO)C[C@@H]3O[C@H]1C[C@H](N)[C@H](O)[C@H](C)O1 [doxorubicin, reference compound]
IC50 [7]: 0.463 µg/mL | IC50 [8]: 10 µg/mL | Resistant Factor [8]: 21.6 ×

CC1(C)C=Cc2c(c3c(c4c(=O)c(-c5ccc(O)cc5)coc24)OC(C)(C)CC3)O1 [isoosajin, 3,4-dihydro-11-(4-hydroxyphenyl)-2,2,6,6-tetramethyl-2H,6H,12H-benzo[1,2-b:3,4-b′:5,6-b″]tripyran-12-one]
P-glycoprotein inhibition (Rho123 accumulation) (P-glycoprotein [9]): showed P-glycoprotein inhibition with a different extent; also recorded: comparable effect compared to pomiferin

CC1(C)C=Cc2c(c3c(c4c(=O)c(-c5ccc(O)c(O)c5)coc24)OC(C)(C)CC3)O1 [isopomiferin, 7,8-dihydro-3-(3,4-dihydroxyphenyl)-6,6,10,10-tetramethyl-4H,6H,10H-benzo[1,2-b:3,4-b′:5,6-b″]tripyran-4-one]
P-glycoprotein inhibition (Rho123 accumulation) (P-glycoprotein [9]): showed P-glycoprotein inhibition with a different extent; also recorded: comparable effect compared to pomiferin

COc1ccc(-c2coc3c4c(c(CC=C(C)C)c(O)c3c2=O)OC(C)(C)C=C4)cc1 [osajin 4′-methyl ether]
P-glycoprotein inhibition (Rho123 accumulation) (P-glycoprotein [9]): showed P-glycoprotein inhibition with a different extent

COc1ccc(C2COc3c4c(c(CC=C(C)C)c(OC)c3C2=O)OC(C)(C)C=C4)cc1OC (stereo not shown) [pomiferin trimethyl ether]
P-glycoprotein inhibition (Rho123 accumulation) (P-glycoprotein [9]): showed P-glycoprotein inhibition with a different extent

CC(C)=CCc1c2c(c3occ(-c4ccc(O)c(O)c4)c(=O)c3c1O)C=CC(C)(C)O2 [pomiferin, 3-(3,4-dihydroxyphenyl)-5-hydroxy-8,8-dimethyl-6-(3-methylbut-2-enyl)pyrano[2,3-h] chromen-4-one]
IC50 [7]: 35.9 µM | IC50 [8]: 15.2 µM | Resistant Factor [8]: 0.42 × | IC50 [1]: 35.7 µM | IC50 [2]: 27.1 µM | Resistant Factor [2]: 0.76 × | Resistant Factor ([2]; listed as Pomiferin): 0.76× | IC50 [3]: 18.2 µM | IC50 [4]: 17.2 µM | Resistant Factor [4]: 0.95 × | Resistant Factor ([4]; listed as Pomiferin): 0.95× | IC50 [5]: 25.5 µM | IC50 [6]: 17.6 µM | Resistant Factor [6]: 0.69 × | Resistant Factor ([6]; listed as Pomiferin): 0.69× | effect on taxol-mediated cytotoxicity (cell death) [10]: significantly enhanced the taxol-mediated cytotoxicity | effect on taxol-mediated cytotoxicity (cell death) [11]: enhanced taxol-mediated cytotoxicity | Rho123 fluorescence signal / accumulation in cells (P-glycoprotein [12]): no difference in fluorescence signal compared with Rho123 stained cells
